{
  "source": "the supplement of paper PMC10307832",
  "assay_in_all_cases": "relative viability (nuclei count vs DMSO), 5 days (fraction); higher = more cells survive",
  "key": {"LK-2": {"test_system": "LK-2", "how_it_was_run": "(§1)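 Lung cancer cell lines in 1536-well plates got either a single drug or a fixed anchor-drug dose together with five library-drug doses (not always all listed) in √10 steps, by pin tool, on the day after seeding. Nuclei were counted after 5 days, and relative viability is the treated-to-vehicle ratio of nuclei counts. Values are medians of duplicate plates.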"}, "NCI-H2085": {"test_system": "NCI-H2085", "how_it_was_run": "as §1"}, "NCI-H2405": {"test_system": "NCI-H2405", "how_it_was_run": "as §1"}, "UMC-11": {"test_system": "UMC-11", "how_it_was_run": "as §1"}, "H3255": {"test_system": "H3255", "how_it_was_run": "as §1"}, "LCLC-103H": {"test_system": "LCLC-103H", "how_it_was_run": "as §1"}, "NCI-H322M": {"test_system": "NCI-H322M", "how_it_was_run": "as §1"}, "LU99A": {"test_system": "LU99A", "how_it_was_run": "as §1"}, "NCI-H2228": {"test_system": "NCI-H2228", "how_it_was_run": "as §1"}, "NCI-H1437": {"test_system": "NCI-H1437", "how_it_was_run": "as §1"}, "NCI-H1651": {"test_system": "NCI-H1651", "how_it_was_run": "as §1"}, "RERF-LC-KJ": {"test_system": "RERF-LC-KJ", "how_it_was_run": "as §1"}, "NCI-H1792": {"test_system": "NCI-H1792", "how_it_was_run": "as §1"}, "NCI-H23": {"test_system": "NCI-H23", "how_it_was_run": "as §1"}, "HARA": {"test_system": "HARA", "how_it_was_run": "as §1"}, "LXF-289": {"test_system": "LXF-289", "how_it_was_run": "as §1"}, "201T": {"test_system": "201T", "how_it_was_run": "as §1"}, "HCC-827": {"test_system": "HCC-827", "how_it_was_run": "as §1"}, "COR-L 105": {"test_system": "COR-L 105", "how_it_was_run": "as §1"}, "LC-2-ad": {"test_system": "LC-2-ad", "how_it_was_run": "as §1"}, "CAL-12T": {"test_system": "CAL-12T", "how_it_was_run": "as §1"}, "HCC-15": {"test_system": "HCC-15", "how_it_was_run": "as §1"}, "BEN": {"test_system": "BEN", "how_it_was_run": "as §1"}},
  "data": [
    {"compound": "Cc1cnc(-c2cnc(NCCNc3ccc(C#N)cn3)nc2-c2ccc(Cl)cc2Cl)[nH]1", "note": "+ C[C@]1(O)C[C@@H](c2nc(-c3ccc4ccc(-c5ccccc5)nc4c3)c3c(N)nccn32)C1 [Linsitinib] (partner 1 µM)", "values": [
      {"measurement": "relative viability", "setting": "LK-2; first compound 0.08 µM", "result": 0.62},
      {"measurement": "relative viability", "setting": "LK-2; first compound 0.253 µM", "result": 0.476},
      {"measurement": "relative viability", "setting": "LK-2; first compound 0.8 µM", "result": 0.489},
      {"measurement": "relative viability", "setting": "LK-2; first compound 2.53 µM", "result": 0.789},
      {"measurement": "relative viability", "setting": "NCI-H2085; first compound 0.08 µM", "result": 0.986},
      {"measurement": "relative viability", "setting": "NCI-H2085; first compound 0.253 µM", "result": 0.932},
      {"measurement": "relative viability", "setting": "NCI-H2085; first compound 0.8 µM", "result": 0.919},
      {"measurement": "relative viability", "setting": "NCI-H2085; first compound 2.53 µM", "result": 0.882},
      {"measurement": "relative viability", "setting": "NCI-H2405; first compound 0.08 µM", "result": 1.25},
      {"measurement": "relative viability", "setting": "NCI-H2405; first compound 0.253 µM", "result": 0.856},
      {"measurement": "relative viability", "setting": "NCI-H2405; first compound 0.8 µM", "result": 0.999},
      {"measurement": "relative viability", "setting": "NCI-H2405; first compound 2.53 µM", "result": 0.709},
      {"measurement": "relative viability", "setting": "UMC-11; first compound 0.08 µM", "result": 1.04},
      {"measurement": "relative viability", "setting": "UMC-11; first compound 0.253 µM", "result": 1},
      {"measurement": "relative viability", "setting": "UMC-11; first compound 0.8 µM", "result": 1},
      {"measurement": "relative viability", "setting": "UMC-11; first compound 2.53 µM", "result": 0.985},
      {"measurement": "relative viability", "setting": "H3255; first compound 0.08 µM", "result": 1.15},
      {"measurement": "relative viability", "setting": "H3255; first compound 0.253 µM", "result": 0.884},
      {"measurement": "relative viability", "setting": "H3255; first compound 0.8 µM", "result": 0.928},
      {"measurement": "relative viability", "setting": "H3255; first compound 2.53 µM", "result": 0.944},
      {"measurement": "relative viability", "setting": "LCLC-103H; first compound 0.08 µM", "result": 0.968},
      {"measurement": "relative viability", "setting": "LCLC-103H; first compound 0.253 µM", "result": 1.11},
      {"measurement": "relative viability", "setting": "LCLC-103H; first compound 0.8 µM", "result": 1.21},
      {"measurement": "relative viability", "setting": "LCLC-103H; first compound 2.53 µM", "result": 1.09},
      {"measurement": "relative viability", "setting": "NCI-H322M; first compound 0.08 µM", "result": 0.99},
      {"measurement": "relative viability", "setting": "NCI-H322M; first compound 0.253 µM", "result": 0.853},
      {"measurement": "relative viability", "setting": "NCI-H322M; first compound 0.8 µM", "result": 0.874},
      {"measurement": "relative viability", "setting": "NCI-H322M; first compound 2.53 µM", "result": 0.947},
      {"measurement": "relative viability", "setting": "LU99A; first compound 0.08 µM", "result": 0.592},
      {"measurement": "relative viability", "setting": "LU99A; first compound 0.253 µM", "result": 0.538},
      {"measurement": "relative viability", "setting": "LU99A; first compound 0.8 µM", "result": 0.5},
      {"measurement": "relative viability", "setting": "LU99A; first compound 2.53 µM", "result": 0.569},
      {"measurement": "relative viability", "setting": "NCI-H2228; first compound 0.08 µM", "result": 0.678},
      {"measurement": "relative viability", "setting": "NCI-H2228; first compound 0.253 µM", "result": 0.637},
      {"measurement": "relative viability", "setting": "NCI-H2228; first compound 0.8 µM", "result": 0.597},
      {"measurement": "relative viability", "setting": "NCI-H2228; first compound 2.53 µM", "result": 0.481},
      {"measurement": "relative viability", "setting": "NCI-H1437; first compound 0.08 µM", "result": 1.01},
      {"measurement": "relative viability", "setting": "NCI-H1437; first compound 0.253 µM", "result": 0.972},
      {"measurement": "relative viability", "setting": "NCI-H1437; first compound 0.8 µM", "result": 1.03},
      {"measurement": "relative viability", "setting": "NCI-H1437; first compound 2.53 µM", "result": 1.04},
      {"measurement": "relative viability", "setting": "NCI-H1651; first compound 0.08 µM", "result": 1.22},
      {"measurement": "relative viability", "setting": "NCI-H1651; first compound 0.253 µM", "result": 0.893},
      {"measurement": "relative viability", "setting": "NCI-H1651; first compound 0.8 µM", "result": 1.04},
      {"measurement": "relative viability", "setting": "NCI-H1651; first compound 2.53 µM", "result": 1.06},
      {"measurement": "relative viability", "setting": "RERF-LC-KJ; first compound 0.08 µM", "result": 0.948},
      {"measurement": "relative viability", "setting": "RERF-LC-KJ; first compound 0.253 µM", "result": 0.828},
      {"measurement": "relative viability", "setting": "RERF-LC-KJ; first compound 0.8 µM", "result": 0.843},
      {"measurement": "relative viability", "setting": "RERF-LC-KJ; first compound 2.53 µM", "result": 0.877},
      {"measurement": "relative viability", "setting": "NCI-H1792; first compound 0.08 µM", "result": 0.683},
      {"measurement": "relative viability", "setting": "NCI-H1792; first compound 0.253 µM", "result": 0.435},
      {"measurement": "relative viability", "setting": "NCI-H1792; first compound 0.8 µM", "result": 0.464},
      {"measurement": "relative viability", "setting": "NCI-H1792; first compound 2.53 µM", "result": 0.524},
      {"measurement": "relative viability", "setting": "NCI-H23; first compound 0.08 µM", "result": 0.674},
      {"measurement": "relative viability", "setting": "NCI-H23; first compound 0.253 µM", "result": 0.555},
      {"measurement": "relative viability", "setting": "NCI-H23; first compound 0.8 µM", "result": 0.536},
      {"measurement": "relative viability", "setting": "NCI-H23; first compound 2.53 µM", "result": 0.691},
      {"measurement": "relative viability", "setting": "HARA; first compound 0.08 µM", "result": 1.1},
      {"measurement": "relative viability", "setting": "HARA; first compound 0.253 µM", "result": 0.847},
      {"measurement": "relative viability", "setting": "HARA; first compound 0.8 µM", "result": 0.921},
      {"measurement": "relative viability", "setting": "HARA; first compound 2.53 µM", "result": 0.933},
      {"measurement": "relative viability", "setting": "LXF-289; first compound 0.08 µM", "result": 0.965},
      {"measurement": "relative viability", "setting": "LXF-289; first compound 0.253 µM", "result": 0.897},
      {"measurement": "relative viability", "setting": "LXF-289; first compound 0.8 µM", "result": 1.01},
      {"measurement": "relative viability", "setting": "LXF-289; first compound 2.53 µM", "result": 0.984},
      {"measurement": "relative viability", "setting": "201T; first compound 0.08 µM", "result": 1.03},
      {"measurement": "relative viability", "setting": "201T; first compound 0.253 µM", "result": 1.01},
      {"measurement": "relative viability", "setting": "201T; first compound 0.8 µM", "result": 1.02},
      {"measurement": "relative viability", "setting": "201T; first compound 2.53 µM", "result": 1.01},
      {"measurement": "relative viability", "setting": "HCC-827; first compound 0.08 µM", "result": 0.963},
      {"measurement": "relative viability", "setting": "HCC-827; first compound 0.8 µM", "result": 1.01},
      {"measurement": "relative viability", "setting": "HCC-827; first compound 2.53 µM", "result": 0.955},
      {"measurement": "relative viability", "setting": "COR-L 105; first compound 0.08 µM", "result": 1},
      {"measurement": "relative viability", "setting": "COR-L 105; first compound 0.253 µM", "result": 0.897},
      {"measurement": "relative viability", "setting": "COR-L 105; first compound 0.8 µM", "result": 0.832},
      {"measurement": "relative viability", "setting": "COR-L 105; first compound 2.53 µM", "result": 0.697},
      {"measurement": "relative viability", "setting": "LC-2-ad; first compound 0.08 µM", "result": 0.905},
      {"measurement": "relative viability", "setting": "LC-2-ad; first compound 0.8 µM", "result": 0.858},
      {"measurement": "relative viability", "setting": "LC-2-ad; first compound 2.53 µM", "result": 0.92},
      {"measurement": "relative viability", "setting": "CAL-12T; first compound 0.08 µM", "result": 0.806},
      {"measurement": "relative viability", "setting": "CAL-12T; first compound 0.253 µM", "result": 0.787},
      {"measurement": "relative viability", "setting": "CAL-12T; first compound 0.8 µM", "result": 0.841},
      {"measurement": "relative viability", "setting": "CAL-12T; first compound 2.53 µM", "result": 0.837},
      {"measurement": "relative viability", "setting": "HCC-15; first compound 0.08 µM", "result": 0.897},
      {"measurement": "relative viability", "setting": "HCC-15; first compound 0.253 µM", "result": 0.811},
      {"measurement": "relative viability", "setting": "HCC-15; first compound 0.8 µM", "result": 0.8},
      {"measurement": "relative viability", "setting": "HCC-15; first compound 2.53 µM", "result": 0.835},
      {"measurement": "relative viability", "setting": "BEN; first compound 0.08 µM", "result": 0.951},
      {"measurement": "relative viability", "setting": "BEN; first compound 0.253 µM", "result": 0.843},
      {"measurement": "relative viability", "setting": "BEN; first compound 0.8 µM", "result": 0.994},
      {"measurement": "relative viability", "setting": "BEN; first compound 2.53 µM", "result": 0.928}
    ]}
  ]
}
